Laboratory results reported in US7058616B1, “Method and system for predicting resistance of a disease to a therapeutic agent using a neural network” (Virco Bvba, priority 2000, dated 2006).

How the values were obtained:
HIV-1 [1] = settings: in vitro; cited from earlier work
HIV-1 [2] = assay: MT-4 cell viral cytopathic effect protection assay, phenotypic susceptibility of patient recombinant virus; type: cell-based
Method: Phenotypic susceptibility was determined using a MT-4 cell viral cytopathic effect protection assay. See, e.g., Kashiwase et al., Chemotherapy 45(1):48–55 (1999), expressly incorporated herein by reference; Larder et al., Antimicrob. Agents Chemother. 43(8):1961–1967 (1999).

Structure (SMILES): CC(C)CN(C[C@@H](O)[C@H](Cc1ccccc1)NC(=O)O[C@H]1CCOC1)S(=O)(=O)c1ccc(N)cc1 [VX-478]
- Effect of N88S mutation on susceptibility (HIV-1 [1]): in vitro hypersensitivity
- actual phenotype resistance level (HIV-1 [2]; PI test sample 1): S/S (A fold resistance of less than or equal to 4 is considered to be ‘sensitive’)
- actual phenotype resistance level (HIV-1 [2]; PI test sample 2): S/S (A fold resistance of less than or equal to 4 is considered to be ‘sensitive’)
- actual phenotype resistance level (HIV-1 [2]; PI test sample 3): S/S (A fold resistance of less than or equal to 4 is considered to be ‘sensitive’)
- actual phenotype resistance level (HIV-1 [2]; PI test sample 4): I/I (greater than 4 and less than 10 is considered to be ‘intermediate’)
- actual phenotype resistance level (HIV-1 [2]; PI test sample 6): S/S (A fold resistance of less than or equal to 4 is considered to be ‘sensitive’)
- actual phenotype resistance level (HIV-1 [2]; PI test sample 7): S/S (A fold resistance of less than or equal to 4 is considered to be ‘sensitive’)
- actual phenotype resistance level (HIV-1 [2]; PI test sample 8): S/S (A fold resistance of less than or equal to 4 is considered to be ‘sensitive’)
- actual phenotype resistance level (HIV-1 [2]; PI test sample 9): S/S (A fold resistance of less than or equal to 4 is considered to be ‘sensitive’)
- actual phenotype resistance level (HIV-1 [2]; PI test sample 10): S/S (A fold resistance of less than or equal to 4 is considered to be ‘sensitive’)
- actual phenotype resistance level (HIV-1 [2]; PI test sample 11): S/S (A fold resistance of less than or equal to 4 is considered to be ‘sensitive’)
- actual phenotype resistance level (HIV-1 [2]; PI test sample 12): S/S (A fold resistance of less than or equal to 4 is considered to be ‘sensitive’)
- actual phenotype resistance level (HIV-1 [2]; PI test sample 13): I/I (greater than 4 and less than 10 is considered to be ‘intermediate’)
- actual phenotype resistance level (HIV-1 [2]; PI test sample 14): S/S (A fold resistance of less than or equal to 4 is considered to be ‘sensitive’)
- actual phenotype resistance level (HIV-1 [2]; PI test sample 15): S/S (A fold resistance of less than or equal to 4 is considered to be ‘sensitive’)
- actual phenotype resistance level (HIV-1 [2]; PI test sample 16): R/R (if the value is greater than 10, it is considered to be ‘resistant’)
- actual phenotype resistance level (HIV-1 [2]; PI test sample 18): S/S (A fold resistance of less than or equal to 4 is considered to be ‘sensitive’)
- actual phenotype resistance level (HIV-1 [2]; PI test sample 19): S/S (A fold resistance of less than or equal to 4 is considered to be ‘sensitive’)
- actual phenotype resistance level (HIV-1 [2]; PI test sample 20): S/S (A fold resistance of less than or equal to 4 is considered to be ‘sensitive’)
- actual phenotype resistance level (HIV-1 [2]; PI test sample 21): S/S (A fold resistance of less than or equal to 4 is considered to be ‘sensitive’)
- actual phenotype resistance level (HIV-1 [2]; PI test sample 22): S/S (A fold resistance of less than or equal to 4 is considered to be ‘sensitive’)
- actual phenotype resistance level (HIV-1 [2]; PI test sample 23, listed as Amprenavir): R/R (if the value is greater than 10, it is considered to be ‘resistant’)
- actual phenotype resistance level (HIV-1 [2]; PI test sample 24): R/R (if the value is greater than 10, it is considered to be ‘resistant’)
- actual phenotype resistance level (HIV-1 [2]; PI test sample 26): S/S (A fold resistance of less than or equal to 4 is considered to be ‘sensitive’)
- actual phenotype resistance level (HIV-1 [2]; PI test sample 30): I/I (greater than 4 and less than 10 is considered to be ‘intermediate’)
- actual phenotype resistance level (HIV-1 [2]; PI test sample 31, listed as Amprenavir): R/R (if the value is greater than 10, it is considered to be ‘resistant’)
- actual phenotype resistance level (HIV-1 [2]; PI test sample 36, listed as APV): I/I (greater than 4 and less than 10 is considered to be ‘intermediate’)
- actual phenotype resistance level (HIV-1 [2]; PI test sample 38, listed as Amprenavir): I/I (greater than 4 and less than 10 is considered to be ‘intermediate’)
- actual phenotype resistance level (HIV-1 [2]; PI test sample 39): I/I (greater than 4 and less than 10 is considered to be ‘intermediate’)
- actual phenotype resistance level (HIV-1 [2]; PI test sample 44): I/I (greater than 4 and less than 10 is considered to be ‘intermediate’)
- actual phenotype resistance level (HIV-1 [2]; PI test sample 46): I/I (greater than 4 and less than 10 is considered to be ‘intermediate’)
- actual phenotype resistance level (HIV-1 [2]; PI test sample 49): I/I (greater than 4 and less than 10 is considered to be ‘intermediate’)
- actual phenotype resistance level (HIV-1 [2]; Table 3 testing sample 1): S/S (A fold resistance of less than or equal to 4 is considered to be “sensitive,”)
- actual phenotype resistance level (HIV-1 [2]; Table 3 testing sample 2): S (A fold resistance of less than or equal to 4 is considered to be “sensitive,”)
- actual phenotype resistance level (HIV-1 [2]; Table 3 testing sample 3): S/S (A fold resistance of less than or equal to 4 is considered to be “sensitive,”)
- actual phenotype resistance level (HIV-1 [2]; Table 3 testing sample 6): S/S (A fold resistance of less than or equal to 4 is considered to be “sensitive,”)
- actual phenotype resistance level (HIV-1 [2]; Table 3 testing sample 7): S/S (A fold resistance of less than or equal to 4 is considered to be “sensitive,”)
- actual phenotype resistance level (HIV-1 [2]; Table 3 testing sample 8): S/S (A fold resistance of less than or equal to 4 is considered to be “sensitive,”)
- actual phenotype resistance level (HIV-1 [2]; Table 3 testing sample 9): S/S (A fold resistance of less than or equal to 4 is considered to be “sensitive,”)
- actual phenotype resistance level (HIV-1 [2]; Table 3 testing sample 10): S/S (A fold resistance of less than or equal to 4 is considered to be “sensitive,”)
- actual phenotype (HIV-1 [2]; Table 13/14 sample 4: 10I,46I,71V,77I,84V,90M, 63P,93L): S (A fold resistance of less than or equal to 4 is considered to be ‘sensitive’)
- actual phenotype (HIV-1 [2]; Table 13/14 sample 12: 10I,36I,46I,84V,90M, 20I,63P,73C,85V): R (if the value is greater than 10, it is considered to be ‘resistant’)
- actual phenotype (HIV-1 [2]; Table 13/14 sample 15: 46I,84V,90M, 20I,63Q): I (greater than 4 and less than 10 is considered to be ‘intermediate’)
- actual phenotype (HIV-1 [2]; Table 13/14 sample 16: 10I,46I,77I,84V,90M, 63P,73T,93L): S (A fold resistance of less than or equal to 4 is considered to be ‘sensitive’)
- actual phenotype (HIV-1 [2]; Table 13/14 sample 22: 10I,20R,36I,71V,73S,84V,90M, 13V,63P): I (greater than 4 and less than 10 is considered to be ‘intermediate’)
- actual phenotype (HIV-1 [2]; Table 13/14 sample 23: 10I,46I,77I,90M, 20I,63P,73T): S (A fold resistance of less than or equal to 4 is considered to be ‘sensitive’)
